Literature values in patent publication US11944640B2, “Zinc-[gamma]-PGA compositions and methods for treating cancer” (XYLONIX PTE. LTD., priority 2016, dated 2024).

Key:
[1] = system: folate receptor (FR), FR-α and FR-β; details: FR-α vs FR-β
[2] = system: leukocyte-originating cells, including murine thymocytes, murine splenic lymphocytes, human Ramos B, and human Jurkat T cells; details: nanomolar concentrations
[3] = system: rats; details: 9˜14 days of dietary administration (240 ppm)
[4] = system: androgen-dependent LNCaP and androgen-independent PC3, DU145 prostate cancer cell lines; details: micromolar concentrations (1-10 μM)

| affinity for folate receptor isoforms (selectivity) [1] | Molecule | mode of cell death [2] | toxicity [3] | mode of cell death [4] |
| --- | --- | --- | --- | --- |
| higher affinity for FR-α over FR-β | CN(CC1CNc2nc(N)[nH]c(=O)c2N1C)c1ccc(C(=O)N[C@@H](CCC(=O)O)C(=O)O)cc1 (stereo partly shown) [DMTHF, N^5,N^10-dimethyl tetrahydrofolate] | – | – | – |
| – | zinc pyrithione | induced zinc-specific apoptosis | acute neurological toxicity | elicited ATP-depletion and, eventually, ERK and PKC-dependent necrosis |
